Measurements reported in US11464770B2, “Anticancer pharmaceutical composition” (NATIONAL CANCER CENTER, priority 2016, dated 2022).
pIC50: −log10 of the molar value. Where two headings read alike, the source gives them in different places.

Assays:
[1] = system: bladder cancer cell lines; assay: Cell based assay, cell viability (CellTiter-Glo), bladder cancer cell lines; details: 72 hours treatment, 0 to 2 μM, CellTiter-Glo
Experimental: (§1) Commercially available bladder cancer, prostate cancer, lung cancer, breast cancer, blood cancer, pancreatic cancer, colorectal cancer, brain cancer, neuroblastoma, melanoma, liver cancer, cervical carcinoma, ovarian cancer, renal cancer, and papilloma cell lines were each treated with trypsin-EDTA and cultured, followed by being seeded in each well of a 96 well plate. After 24 hours of treatment at constant temperature, the respective cells were treated with the candidate compound so that a final concentration became 0 to 2 μM. The treated cells were additionally cultured for 72 hours, and cell viability was measured by using an ATP detection method (CellTiter-Glo® Luminescent Cell Viability Assay, Promega).

[2] = system: prostate cancer cell lines (e.g. DU145/TXR); assay: Cell based assay, cell viability (CellTiter-Glo), prostate cancer cell lines; details: Homo sapiens, 72 hours treatment, final concentration 0 to 2 μM
Experimental: as §1

neuroblastoma cell lines = assay: Cell based assay, cell viability (CellTiter-Glo), neuroblastoma cell lines; details: Homo sapiens; SH-SY5Y cell line
Experimental: as §1

liver cancer cell lines = assay: Cell based assay, cell viability (CellTiter-Glo), liver cancer cell lines; details: Homo sapiens, SK-HEP1; SK-HEP-1 cell line
Experimental: as §1

[3] = system: ovarian cancer cell lines; assay: Cell based assay, cell viability (CellTiter-Glo), ovarian cancer cell lines; details: Homo sapiens; OVCAR-3 cells
Experimental: as §1

[4] = system: RT4: human urinary bladder transitional cell papilloma; assay: Cell based assay, cytotoxicity in RT4 papilloma cells (selectivity); details: Homo sapiens, RT-4; RT4 cells
Experimental: Commercially available bladder cancer, prostate cancer, lung cancer, breast cancer, blood cancer, pancreatic cancer, colorectal cancer, brain cancer, neuroblastoma, melanoma, liver cancer, cervical carcinoma, ovarian cancer, renal cancer, and papilloma cell lines were each treated with trypsin-EDTA and cultured, followed by being seeded in each well of a 96 well plate. […] The treated cells were additionally cultured for 72 hours, and cell viability was measured by using an ATP detection method (CellTiter-Glo® Luminescent Cell Viability Assay, Promega).

[5] = 253J cells, read-out: IC50, bladder cancer cell line 253J
[6] = 5637 cells, read-out: IC50, bladder cancer cell line 5637
[7] = Homo sapiens, T-24, T24 cells, read-out: IC50, bladder cancer cell line T24
[8] = Homo sapiens, J82 cells, read-out: IC50, bladder cancer cell line J82
[9] = CWR22 cells, read-out: IC50, prostate cancer cell line CWR22
[10] = DU-145, DU145/TXR cells, read-out: IC50, prostate cancer cell line DU145/TXR
[11] = DU-145, DU145 cells, read-out: IC50, prostate cancer cell line DU145
[12] = LNcap cells, read-out: IC50, prostate cancer cell line LNcap
[13] = Homo sapiens, UMUC3, UM-UC-3 cells, read-out: IC50, bladder cancer cell line UM-UC-3
[14] = Homo sapiens, KU-19-19 cells, read-out: IC50, bladder cancer cell line KU-19-19
[15] = MBT-2 cells, read-out: IC50, bladder cancer cell line MBT-2
[16] = PC-3 cells, read-out: IC50, prostate cancer cell line PC-3

Row | SMILES | pIC50 [1, 5] | pIC50 [1, 6] | pIC50 [1, 7] | pIC50 [1, 8] | pIC50 [2, 9] | pIC50 [2, 10] | pIC50 [2, 11] | pIC50 [2, 12] | pIC50 (neuroblastoma cell lines) | pIC50 (liver cancer cell lines) | pIC50 [3] | pIC50 [4] | pIC50 [1, 13] | pIC50 [1, 14] | pIC50 [1, 15] | pIC50 [2, 16]
1 | CC(=O)c1c([S+]([O-])c2ccccc2)[nH]c2c(Br)ccc(Cl)c2c1=O (stereo not drawn) [Compound 13, 3-acetyl-8-bromo-5-chloro-2-(phenylsulfinyl)quinolin-4(1H)-one] | < 5.70 | < 5.70 | < 5.70 | < 5.70 | < 5.70 | < 5.70 | < 5.70 | < 5.70 | < 5.70 | < 5.70 | < 5.70 | < 5.00 |  |  |  | 
2 | COc1ccccc1Sc1[nH]c2c(Br)ccc(Cl)c2c(=O)c1C(C)=O [Compound 14, 3-acetyl-8-bromo-5-chloro-2-((2-methoxyphenyl)thio)quinolin-4(1H)-one] | < 5.70 | < 5.70 | < 5.70 | < 5.70 | < 5.70 | < 5.70 | < 5.70 | < 5.70 | < 5.70 | < 5.70 | < 5.70 | < 5.00 | < 5.70 | < 5.70 | < 5.70 | < 5.70
3 | COc1ccccc1[S+]([O-])c1[nH]c2c(Br)ccc(Cl)c2c(=O)c1C(C)=O (stereo not drawn) [Compound 15, 3-acetyl-8-bromo-5-chloro-2-((2-methoxyphenyl)sulfinyl)quinolin-4(1H)-one] | < 5.70 | < 5.70 | < 5.70 | < 5.70 | < 5.70 | 5.73 | < 5.70 | < 5.70 | < 5.70 | < 5.70 | < 5.70 | < 5.00 |  |  |  | 
4 | CC(=O)c1c(Sc2ccc(Br)cc2)[nH]c2c(Br)ccc(Cl)c2c1=O [Compound 16, 3-acetyl-8-bromo-2-((4-bromophenyl)thio)-5-chloroquinolin-4(1H)-one] | < 5.70 | < 5.70 | < 5.70 | < 5.70 | < 5.70 | < 5.70 | < 5.70 | < 5.70 | < 5.70 | < 5.70 | < 5.70 | < 5.00 | < 5.70 | < 5.70 | < 5.70 | < 5.70
5 | CC(=O)c1c([S+]([O-])c2ccc(Br)cc2)[nH]c2c(Br)ccc(Cl)c2c1=O (stereo not drawn) [Compound 17, 3-acetyl-8-bromo-2-((4-bromophenyl)sulfinyl)-5-chloroquinolin-4(1H)-one] | < 5.70 | < 5.70 | < 5.70 | < 5.70 | < 5.70 | < 5.70 | < 5.70 | < 5.70 | < 5.70 | < 5.70 | < 5.70 | < 5.00 |  |  |  | 
6 | CSc1c(C(C)=O)c(=O)c2c(Cl)ccc(Br)c2n1C(C)=O [Compound 18, 1,1′-(8-bromo-5-chloro-2-(methylthio)-4-oxoquinoline-1,3(4H)-diyl)bis(ethan-1-one)] | < 5.70 | < 5.70 | < 5.70 | < 5.70 | < 5.70 | < 5.70 | < 5.70 | < 5.70 | < 5.70 | < 5.70 | < 5.70 | < 5.00 | < 5.70 | < 5.70 | < 5.70 | < 5.70
7 | CC(=O)c1c([S+](C)[O-])n(C(C)=O)c2c(Br)ccc(Cl)c2c1=O (stereo not drawn) [Compound 19, 1,1′-(8-bromo-5-chloro-2-(methylsulfinyl)-4-oxoquinoline-1,3(4H)-diyl)bis(ethan-1-one)] | < 5.70 | < 5.70 | < 5.70 | < 5.70 | < 5.70 | < 5.70 | < 5.70 | < 5.70 | < 5.70 | < 5.70 | < 5.70 | < 5.00 | < 5.70 | < 5.70 | < 5.70 | < 5.70
8 | CC(=O)c1c([S+]([O-])Cc2ccccc2)n(C(=O)c2ccc(Br)cc2)c2c(Br)ccc(Cl)c2c1=O (stereo not drawn) [Compound 20, 3-acetyl-2-(benzylsulfinyl)-8-bromo-1-(4-bromobenzoyl)-5-chloroquinolin-4(1H)-one] | < 5.70 | < 5.70 | < 5.70 | < 5.70 | < 5.70 | < 5.70 | < 5.70 | < 5.70 | < 5.70 | < 5.70 | < 5.70 | < 5.00 | < 5.70 | < 5.70 | < 5.70 | < 5.70
9 | CC(=O)c1c(S(C)(=O)=O)n(C(=O)c2ccc(Br)cc2)c2c(Br)ccc(Cl)c2c1=O [Compound 21, 3-acetyl-8-bromo-1-(4-bromobenzoyl)-5-chloro-2-(methylsulfonyl)quinolin-4(1H)-one] | < 5.70 | < 5.70 | < 5.70 | < 5.70 | < 5.70 | < 5.70 | < 5.70 | < 5.70 | < 5.70 | < 5.70 | < 5.70 | < 5.00 | < 5.70 | < 5.70 | < 5.70 | < 5.70
10 | CC(=O)c1c([S+](C)[O-])n(Cc2ccc(F)c(Cl)c2)c2c(Br)ccc(Cl)c2c1=O (stereo not drawn) [Compound 22, 3-acetyl-8-bromo-5-chloro-1-(3-chloro-4-fluorobenzyl)-2-(methylsulfinyl)quinolin-4(1H)-one] | < 5.70 | < 5.70 | < 5.70 | < 5.70 | < 5.70 | < 5.70 | < 5.70 | < 5.70 | < 5.70 | < 5.70 | < 5.70 | < 5.00 | < 5.70 | < 5.70 | < 5.70 | < 5.70
11 | CC(=O)c1c(SCc2ccccc2)n(C(=O)c2ccc(Br)cc2)c2c(Br)ccc(Cl)c2c1=O [Compound 23, 3-acetyl-2-(benzylthio)-8-bromo-1-(4-bromobenzoyl)-5-chloroquinolin-4(1H)-one] | < 5.70 | < 5.70 | < 5.70 | < 5.70 | < 5.70 | < 5.70 | < 5.70 | < 5.70 | < 5.70 | < 5.70 | < 5.70 | < 5.00 | < 5.70 | < 5.70 | < 5.70 | < 5.70
12 | CC(=O)c1c(SC(C)C)[nH]c2c(Br)ccc(Cl)c2c1=O [Compound 24, 3-acetyl-8-bromo-5-chloro-2-(isopropylthio)quinolin-4(1H)-one] | < 5.70 | < 5.70 | < 5.70 | < 5.70 | < 5.70 | < 5.70 | < 5.70 | < 5.70 | < 5.70 | < 5.70 | < 5.70 | < 5.00 | < 5.70 | < 5.70 | < 5.70 | < 5.70
